From ChEMBL document CHEMBL1131657, “Syntheses and kinetic evaluation of hydroxamate-based peptide inhibitors of glyoxalase I” (Bioorg Med Chem Lett, 1998)
Values joined by “and” are separate entries in the source; they are usually repeats but may differ in a detail not shown here. Equal values may be shown once. *1 amine or outer side, *2 acyl side, *3 side chain or, on linkers, in order; H or OH if unused. Where a SMILES comes first, the peptide text is derived from it. The star is where a group is joined. γGlu = O=C(O)[CH](CCC(=O)[*:2])N[*:1]; NHOH = ON*

Key:
SNB-75 [1] = assay: Antitumor activity was evaluated for reduction of growth of SNB-75 cancer cells at a concentration of 100 uM; format: functional, Homo sapiens
Plasmodium falciparum [2] = assay: Antimalarial activity against Plasmodium falciparum D6 (Sierra Leone); moderate activity; format: functional, organism-based
Plasmodium falciparum [3] = assay: Antimalarial activity against Plasmodium falciparum W2 Indochina; moderate activity; format: functional, organism-based
A498 = assay: Antitumor activity was evaluated for reduction of growth of renal cancer (A498) cells at a concentration of 100 uM; format: functional, Homo sapiens
[4] = Antitumor activity was evaluated for reduction of growth of non-small cell lung (NCL-H522) cancer cells at a concentration of 100 uM; format: functional, Homo sapiens, Cancer cell lines
SNB-75 [5] = assay: Antitumor activity was evaluated for reduction of growth of CNS cancer (SNB-75)cells at a concentration of 100 uM; format: functional, Homo sapiens
HL-60 = assay: Antitumor activity was evaluated for reduction of growth of leukemia(HL-60 (TB)) cancer cells at a concentration of 100 uM; format: functional, Homo sapiens

Row | SMILES | Reduction (SNB-75 [1]) [%] | Activity (Plasmodium falciparum [2]) | Activity (Plasmodium falciparum [3]) | Reduction (A498) | Reduction [4] [%] | Reduction (SNB-75 [5]) [%] | Reduction (HL-60) [%]
1 | CN(O)C(=O)CCC(NC(=O)CCC(N)C(=O)O)C(=O)NCC(=O)O (stereo not given) | 40 | Poor or moderate activity | Poor or moderate activity | – | – | – | –
2 | NC(CCC(=O)NC(CCC(=O)NO)C(=O)NCC(=O)O)C(=O)O (stereo not given) (γGlu-Glu(NHOH)-Gly-OH; configuration not given here) | – | Poor or moderate activity | Poor or moderate activity | 34% and 31% | 38 | 31 | 46
3 | CCOC(=O)CNC(=O)C(CCC(=O)NO)NC(=O)CCC(N)C(=O)O (stereo not given) (γGlu-Glu(NHOH)-Gly-OEt; configuration not given here) | – | – | – | 31% | – | – | –
